Here are results for 6 molecules from patent US6555714B1, “Inhibitors of hydroxyphenylpyruvate dioxygenase and an assay for identification of inhibitors” (Hoechst Aktiengesellschaft, priority 1993, dated 2003).

For data set [1], the target named is anabolic plant HPPD (p-hydroxyphenylpyruvate dioxygenase) from maize (Zea mays, UniProt A0A1D6H1G0). It counts as biochemical. Particulars: for IC50: Table 1 of compounds of formula (I), HPPD inhibition, IC50 is a molar concentration. On the procedure:
A modified form of the method for measuring catabolic HPPDs from human liver has been described by Lindblad (Lindblad, B. (1971) Clin. Chim. Acta 34, 113-121). End-point measurements are used in this case for detecting ^14C—CO2, which is liberated from ^14C-p-hydroxyphenylpyruvate by the enzymatic activity of HPPD.
To enrich the anabolic HPPD from plant tissues, young etiolated maize plants were homogenized in extraction buffer (20 mM phosphate buffer pH 7.0; 0.14 M KCl; 0.1 mg/ml glutathione and 1% insoluble polyvinylpyrrolidone) for 3×10 seconds, for example in a Waring blender. The extract was filtered (all other isolation steps were carried out at 4° C.) and centrifuged (20 minutes; 10,000 g). The supernatant was subjected to fractional ammonium sulfate precipitation. […] At this stage, it was possible to store the enzyme at −80° C. following dialysis in a suitable buffer, such as, for example, 20 mM phosphate buffer pH 7.0; 0.14 M KCl; 0.1 mg/ml glutathione.
The enzyme assays were performed in 20 ml polyethylene screw-top containers. Two hypodermic needles (0.9×40 mm) were pushed through the screw-top cap. One of the hypodermic needles was bent to form a hook onto which a small filter paper disk of diameter 10 mm was placed. The filter paper was moistened with 25 μl of methylbenzethonium hydroxide (Sigma). The second hypodermic needle was used for injecting start and stop solution into the screw-top container.
The enzyme reaction mix contained:
1 ml of 0.1 M phosphate buffer, pH 7.3;
2 g/l of bovine liver catalase;
100 μl of a mixture of 3 mM dichlorophenol-indophenol and
150 mM glutathione (reduced);
25 μl of acetone (or potential inhibitors dissolved in acetone) and
enzyme in a total volume of 1,635 μl.
After preincubation for 5 minutes at 30° C., the reaction was started by injecting 800 μl of ^14C-p-hydroxyphenylpyruvate. The reaction was stopped by injecting 600 μl of 1 N H2SO4, incubation was continued for 15 minutes, and the radioactivity which was liberated was determined on the small filter paper disks in a liquid scintillation counter.
(§1) FEBS-Letters, 1993, 318 (2), 162-166.

Data set [2] deals with Lemna gibba. The data set can be described thus: Growth inhibition of Lemna. Format: in vivo. Particulars: for inhibition at 100 µM: 10^−4 M; for inhibition at 10 µM: 10^−5 M; for inhibition at 1 µM: 10^−6 M.
Excerpt: as §1

The subject of data set [3] is plastoquinone biosynthesis in wheat. The data set can be described thus: Incorporation of radioactivity from 14C-tyrosine into plastoquinone in wheat (thin-layer chromatography). Format: in vivo. Particulars: wheat plants sprayed with 100 g/ha in screening formulation, FIG. 1. The protocol:
Thin-layer chromatography analysis of the incorporation of radioactivity from ^14C-tyrosine into plastoquinone. […] The lipophilic metabolites of the wheat were extracted using chloroform, separated on silica gel 60 HPTLC plates using chloroform: diethyl ether (99:1), and the radioactivity was analyzed by thin-layer scanner.

The test system of data set [4] is Lemna gibba. The data set can be described thus: Neutralization of the effect of SC-0051 by homogentisic acid, number of Lemna gibba plants. Format: in vivo. Particulars: day six. The protocol:
HPPD catalyzes the transformation of p-hydroxyphenylpyruvate to homogentisic acid. If HPPD inhibition is responsible for the herbicidal activity of an inhibitor, then it should be possible to neutralize the herbicidal effect by supplementation with homogentisic acid. […] The plant was grown in a sterile aqueous medium supplemented as described in Table 1.
Batches of three Lemna plants in 100 ml of sterile medium were incubated for six days with sterile-filtered supplements. […] The number of newly formed plants was determined on day six.

Where “and” joins values, the source holds several entries; their conditions need not be identical. Equal values may be shown once.

One may read the IC50 as the concentration at which inhibition is half-maximal. Higher therefore signals lower potency. Usually inhibition stands for how much of the control response was suppressed. In general, melting point refers to the temperature of the solid-liquid transition.

Sequence of anabolic plant HPPD (p-hydroxyphenylpyruvate dioxygenase) from maize (A0A1D6H1G0 entry or part of it): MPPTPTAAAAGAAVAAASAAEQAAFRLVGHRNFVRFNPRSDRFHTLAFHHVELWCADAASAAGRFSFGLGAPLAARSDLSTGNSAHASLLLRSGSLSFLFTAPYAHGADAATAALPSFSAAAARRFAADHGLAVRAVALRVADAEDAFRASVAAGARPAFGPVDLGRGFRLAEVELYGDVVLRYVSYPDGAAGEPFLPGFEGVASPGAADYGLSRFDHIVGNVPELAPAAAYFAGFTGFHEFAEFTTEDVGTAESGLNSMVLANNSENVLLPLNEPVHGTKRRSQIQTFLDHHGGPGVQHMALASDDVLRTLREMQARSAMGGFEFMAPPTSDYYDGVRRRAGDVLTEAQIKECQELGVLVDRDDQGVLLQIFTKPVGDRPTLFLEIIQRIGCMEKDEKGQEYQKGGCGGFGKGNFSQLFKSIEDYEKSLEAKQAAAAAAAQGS

In data set [1], “2-(2,4-Dichlorobenzoyl)-1,4-quinone [Example No. 91]” registered an IC50 of 0.018 µM.

In the case of `Cc1cc(Cl)cc(C(=O)c2ccc(S(C)(=O)=O)cc2Cl)c1O` [Example No. 100, 2,5′-Dichloro-2′-hydroxy-3′-methyl-4-methylsulfonylbenzophenone], the melting point lay in the range of 175 to 180 °C. For the same molecule, in the data set on Lemna gibba [2], the inhibition at 100 µM worked out at 98%, the inhibition at 10 µM was 96% and testing at 1 µM gave an inhibition of 92%. The molecule further yielded an IC50 in data set [1] of 0.0062 µM.

Turning to `CS(=O)(=O)c1ccc(C(=O)c2c(O)cc(Cl)cc2Cl)c(Cl)c1` [Example No. 183, 2,2′,4′-Trichloro-6′-hydroxy-4-methylsulfonylbenzophenone], the melting point is 123 to 126 °C and 123 to 125 °C. In the data set on Lemna gibba [2], this molecule displayed an inhibition at 100 µM of 98%, an inhibition at 10 µM of 82% and an inhibition at 1 µM of 81%. In data set [1], this molecule had an IC50 of 0.0048 µM.

Turning to `CS(=O)(=O)c1ccc(C(=O)C2C(=O)CCCC2=O)c(Cl)c1` [SC-0051, 2-(2-chloro-4-methanesulfonylbenzoyl)-1,3-cyclohexanedione], the “Plastoquinone biosynthesis (incorporation of radioactivity from tyrosine into plastoquinone)” value in data set [3] is “inhibited”. Moreover, the “Number of L. gibba plants” value with Lemna gibba [4] (10^−7 M SC-0051, medium supplemented with 1 mM HGA) amounted to 32; in the data set with Lemna gibba [4] (10^−7 M SC-0051, medium supplemented with 1 mM HPPD), 2; with Lemna gibba [4] (10^−7 M SC-0051, no supplementation of the medium, start three plants) it was 3.

For the molecule `CC1(C)CON(Cc2ccccc2Cl)C1=O` [clomazone, reference compound], the “Inhibition of HPPD (in words)” value in data set [1] (partially purified maize HPPD, FIG. 2) is “no inhibitory action”.

In turn, `CS(=O)(=O)c1ccc(C(=O)c2cc(C(=O)O)ccc2O)c(Cl)c1` [compound 88] registered a melting point of 254 to 256 °C. In addition, the IC50 in data set [1] is 0.07 µM.
